Patent US8101761B2, “(E)-N-{3-[1-(8-fluoro-11H-10-OXA-1-AZA-dibenzo [A,D] cyclohepten-5ylidene)-propyl]-phenyl}-methanesulfonamide as glucocorticoid receptor modulator for the treatment of rheumatoid arthritis” (Eli Lilly and Company, priority 2008, dated 2012)

Assays:
[1] = test system: IL-6 production in human skin fibroblast CCD-39SK cells; test: GR-mediated transrepression: IL-1β-stimulated IL-6 production in human skin fibroblast CCD-39SK cells; type: cell-based; settings: IL-1β 1 ng/ml
Protocol: 1. IL-1,3-stimulated IL-6 Production in Human Skin Fibroblast CCD-39SK Cells:
Briefly, human skin fibroblast CCD-39SK cells (20,000 cells/well), obtained from ATCC are seeded in 96-well plates in […] growth medium supplemented with 10% FBS, 100 U/ml penicillin, 100 ug/ml streptomycin and 2 mmol/L L-glutamine. Cells are maintained in a humidified chamber with 5% CO2 at 37° C. Test compounds are added to the wells in various concentrations ranging from a final concentration of about […] to 4.64 μM. 0.1 μM of dexamethasone is used as a positive control. 1-hour post treatment with test compound, IL-1β is added at final concentration of 1 ng/ml; and the reaction mixture is incubated overnight. 10 μl of supernatant is removed from each well and IL-6 concentrations are determined using an ELISA kit, with IL-6 concentrations being quantified by reading absorbance at 450 nm.

[2] = test system: TNF-α production in PMA-differentiated U937 cells; test: GR-mediated transrepression: LPS-stimulated TNF-α production in PMA-differentiated U937 cells; type: cell-based, human
Protocol: 2. LPS-Stimulated TNF-α Production in PMA-Differentiated U937 Cells:
Human U937 pre-monocytic cells, obtained from ATCC, are grown in complete RPMI 1640 medium containing 10% FBS. To allow monocytes to differentiate to adherent macrophages, U937 cells are washed in calcium, magnesium free and resuspended in fresh RPMI medium containing 20 nM phorbol 12-myristate-13-acetate (PMA) overnight. After differentiation, test compounds are added to the cells in the 96-well plate at various concentrations ranging from about 4.65 pM to 4.64 μM. 1-hour post treatment with test compound, LPS is added at final concentration of 100 ng/ml and the reaction mixture is incubated overnight. 25 μl cell-free supernatant is transferred from each well to another 96-well plate and TNF-α production is measured using an ELISA kit with TNF-α being quantified by reading absorbance at 450 nm.

[3] = molecular target: T1, human androgen receptor (AR) (Homo sapiens, UniProt P10275); test: Nuclear hormone receptor functional modulation assay (probasin ARE-luciferase reporter, HEK293), AR; type: cell-based; settings: agonist mode, mean of n=4 or 5
T1 construct: expressed in transfected cells; host or cells: HEK293, transient transfection, CMV promoter plasmid
T1 sequence (P10275 1-920): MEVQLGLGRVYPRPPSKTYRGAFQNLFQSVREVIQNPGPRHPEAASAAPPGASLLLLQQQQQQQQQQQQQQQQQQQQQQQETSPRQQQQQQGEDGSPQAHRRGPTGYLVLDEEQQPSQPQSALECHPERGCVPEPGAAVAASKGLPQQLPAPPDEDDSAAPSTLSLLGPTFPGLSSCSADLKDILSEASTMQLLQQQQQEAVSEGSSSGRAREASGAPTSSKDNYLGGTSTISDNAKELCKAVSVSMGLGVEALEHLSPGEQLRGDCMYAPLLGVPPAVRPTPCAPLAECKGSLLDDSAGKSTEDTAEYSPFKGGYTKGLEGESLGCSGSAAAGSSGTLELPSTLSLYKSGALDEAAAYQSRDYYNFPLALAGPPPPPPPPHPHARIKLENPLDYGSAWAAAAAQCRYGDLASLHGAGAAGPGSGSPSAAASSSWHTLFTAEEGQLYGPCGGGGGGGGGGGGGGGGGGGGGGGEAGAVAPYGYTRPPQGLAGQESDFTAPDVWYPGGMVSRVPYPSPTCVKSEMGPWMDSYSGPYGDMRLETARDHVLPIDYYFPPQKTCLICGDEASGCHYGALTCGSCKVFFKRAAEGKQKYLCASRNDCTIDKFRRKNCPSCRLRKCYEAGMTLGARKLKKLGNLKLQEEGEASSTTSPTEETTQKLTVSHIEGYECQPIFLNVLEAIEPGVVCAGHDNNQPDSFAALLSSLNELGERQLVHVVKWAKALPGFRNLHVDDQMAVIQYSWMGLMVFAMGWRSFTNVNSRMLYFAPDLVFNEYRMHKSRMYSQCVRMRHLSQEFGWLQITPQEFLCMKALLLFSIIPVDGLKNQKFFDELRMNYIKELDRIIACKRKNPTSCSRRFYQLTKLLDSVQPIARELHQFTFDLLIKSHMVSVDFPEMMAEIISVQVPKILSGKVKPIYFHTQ
From the text: The solvents, reagents, and ligands employed in the functional assay are readily available from commercial sources, or can be prepared by one of ordinary skill in the art.
Human embryonic kidney HEK293 cells are transfected with steroid hormone receptor and reporter gene plasmids using Fugene™ transfection reagent. Briefly, the reporter plasmid containing two copies of probasin ARE and TK(thymidine kinase) promoter upstream of the luciferase reporter cDNA, is transfected into HEK293 cells with a plasmid constitutively expressing human androgen receptor (AR) using viral CMV(cytomegalovirus) promoter. The reporter plasmid containing two copies of GRE and TK promoter upstream of the luciferase reporter cDNA is transfected with a plasmid constitutively expressing either human glucocorticoid receptor (GR), human mineralocorticoid receptor (MR), or human progesterone receptor (PR) using viral CMV promoter. […] After 24-hours incubation with test compounds, cells are lysed and luciferase activity is determined using standard techniques.
Data are fitted to a four parameter-fit logistic curve fit to determine EC50 values. […] IC50 values may be determined similarly using antagonist mode assay data. Percent inhibitions may also be determined relative to the response in the presence of agonist alone, as described above.

Compound: CC/C(=C1\c2ccc(F)cc2OCc2ncccc21)c1cccc(NS(C)(=O)=O)c1 [Compound (I), (E)-N-{3-[1-(8-Fluoro-11H-10-oxa-1-aza-dibenzo[a,d]cyclohepten-5-ylidene)-propyl]-phenyl}-methanesulfonamide]
- IC50 ([1]; Homo sapiens, Skin fibroblast, average of n=15, read-out: IC50, inhibition of IL-6 expression): ~8.5 nM
- maximal inhibition of the endogenous expression of IL-6 ([1]; n=15): ≥ 90%
- IC50 ([2]; Homo sapiens, U-937, LPS 100 ng/ml, average of n=4, read-out: IC50, inhibition of TNF-α expression): ~21 nM
- maximal inhibition of the endogenous expression of TNF-α ([2]; LPS 100 ng/ml, n=4): ≥ 90%
- efficacy in activating transcription, AR ([3]; relative to 100 nM methyltrienolone): about 4.4%
- EC50 ([3]; read-out: EC50 in activating transcription, AR): > 10000 nM
